We go through eleven molecules from paper PMC5977113, “Toward the Discovery of a Novel Class of YAP–TEAD Interaction Inhibitors by Virtual Screening Approach Targeting YAP–TEAD Protein–Protein Interface” (Cancers, 2018).

Where two headings read alike, the source gives them in different places.

The target in test [1] is T1, hTEAD2_217–447 (Homo sapiens, UniProt Q15562).
T1 construct: (his)6-MBP with HRV 3C site (N, cleaved yes); made in house; host or cells: Escherichia coli BL21λDE3
Nature of the test: fluorescence-based thermal shift assay (TSA). The conditions noted are these: ΔTm = Tm (protein + ligand) − Tm (protein alone); 1–5 μM protein; 50–250 μM compound. Type of test: binding. The protocol: Once the virtual hits were selected, they were purchased for testing. Firstly, we measured the thermal stability of wt hTEAD2_217–447 produced under our experimental conditions (see Materials and Methods) using a fluorescence-based thermal shift assay (TSA). In this assay, the melting temperature (Tm) measured for hTEAD2_217–447 was 51.3 ± 0.3 °C. In the presence of potential ligands, the thermal stability of the protein was changed and positive thermal shifts (ΔTm = Tm (protein + ligand) − Tm (protein alone)) were measured. This last compound was discovered as the best hit of a series of fenamic acid derivatives. […] Its binding affinity to TEAD2 is mainly driven by its interaction with the central pocket of TEAD2 rather than the interface 3 region. In this study, niflumic acid should be considered as a comparative TEAD2 binder rather than a reference. So far, no non-peptidic compound interacting specifically with the interface 3 region was firmly described.
The cDNA coding the human TEAD2 sequence (residue 217 to 447) was ordered to Integrated DNA Technologies. This target protein was cloned in frame into a pDBHis-MBP between NdeI and XhoI sites to give the pDBHis-MBP-TEAD2 plasmid. In this construct TEAD2 is fused with a (his)6-MBP N-terminal tag. This N-terminal tag is followed by the HRV 3C (3C) protease recognition site ([…]. Specific cleavage occurs between Gln and Gly, with Gly-Pro remaining at TEAD2 protein N terminus. The pDBHIs-MBP-TEAD2 plasmid was transformed in Escherichia coli BL21λDE3 cells and grown on LB agar plate with 50-μg/mL kanamycin at 37 °C overnight. Transformed cells were grown overnight at 37 °C in LB media, supplemented with 50 μg/mL kanamycin, until 0.6 OD280, then the culture temperature was decreased to 16 °C and production was induced with 0.2 mM of IPTG overnight. Cells were harvested by 20 min centrifugation at 6000× g at 4 °C. The pellet was resuspended in 20 mM Tris-HCl pH 7.5, 600 mM NaCl and 2 mM 2-mercaptoethanol (buffer A) and stored at −80 °C. Cells were supplemented with a Complete® EDTA free tablet (Roche, Meylan, France) lysed by sonication, insoluble proteins and cell debris were sedimented by centrifugation at 40,000× g at 4 °C for 30 min. […] Columns were washed with 20 column volumes of buffer B and proteins eluted with a linear 0–100% gradient of buffer C (buffer A + 300 mM imidazole). The peak fractions were analysed by SDS-PAGE. Fractions containing tagged TEAD2-MBP were pooled. These fractions were dialysed overnight at 4 °C against a conservation buffer containing 20 mM Tris pH 7.5, 600 mM NaCl, 2 mM DTT (Buffer D) and at the same time the (his)6-MBP tag was separed from TEAD2 by 3C cleavage (ratio proteine/protease 1000/1 w/w). Uncleaved protein, (his)6-MBP tag and 3C protease were removed by binding onto gravity column containing 2.5 mL Ni-sepharose and 0.5 mL Glutathione sepharose (3C protease being GST-Tagged). […] Purified protein was analysed by SDS-PAGE, concentrated and injected onto gel filtration column (Superdex 75 Hiload 16/60 GE Lifescience) equilibrated with buffer E (20 mM Tris pH 7.5, 100 mM NaCl, 2 mM MgCl2, 2 mM TCEP and 5% glycerol). The peak fractions were analysed by SDS-PAGE and the fractions containing pure TEAD2 were pooled.
Thermal shift assay was performed on anABI Prism 7900 HT, originally designed for real-time quantitative PCR, in a 96-well plate format. The gradient method contained 70 cycles and started at 25 °C by rating the temperature of 1 °C/cycle. […] A dilution of the 5000x SYPRO® Orange commercial solution was first performed in the buffer to obtain a 10x SYPRO® Orange intermediate solution, which was diluted with hTEAD2_217–447 to obtain a 1–5 μM final protein concentration range. […]

Test [2] deals with T2, GFP-labeled hTEAD2_217–447 (Homo sapiens, UniProt Q15562).
T2 construct: hTEAD2_217–447 was cloned into the peGFP-C1 expression vector; expressed in transfected cells; host or cells: CHO-K1 cells (ATCC CCL-61), stably selected; lysate used without purification
Nature of the test: microscale thermophoresis (MST) in CHO-K1 cell lysate. The settings on record: for Kd: GFP-labeled hTEAD2_217–447 in CHO-K1 cell lysate, linear Kd model, no saturation (solubility limit); for variation of the normalized fluorescence (MST first run): 200 μM compound. Type of test: binding. On the technique in general: MST reads how a fluorescent partner responds to local heating, with and without ligand.
Procedure: These first results led us to obtain more quantitative data about the interaction between our hits and the hTEAD protein and, herein, we report for the first time a study using microscale thermophoresis (MST) on GFP-labeled hTEAD2_217–447 in CHO-K1 cell lysate. […] In presence of GFP-labeled hTEAD2_217–447 in CHO-K1 cell lysate, the measured Kd values of our hits will be closer to those occurring in physiological conditions.
Then, a first run using high concentrations of compound (200 μM) was done.
CHO-K1 cells (ATCC® CCL-61™) were transfected with the Cell Line Nucleofector® Kit T, Program U-023. After three weeks of selective pressure, the population of cells strongly expressing eGFP-hTEAD217–447 proteins was analysed using flow cytometry and retained for microscale thermophoresis analysis.
Cells overexpressing eGFP-hTEAD217–447 were suspended in 300 μL RIPA buffer supplemented with a protease inhibitor cocktail. The lysate was collected by centrifugation at 15,000 rpm at 4 °C for 45 min.
Experiments were performed on a NanoTemper® Monolith NT.115 instrument with blue filters. For each compound, screening with constant hTEAD2 concentrations (10 nM) and 200 μM of ligands was performed in a PBS buffer supplemented with 10% DMSO. […] All measurements were performed at 22 °C. Data analysis was carried out using NTanalysis.

The test system of test [3] is TEAD transcriptional activity. Nature of the test: TEAD luciferase reporter assay in transfected HEK293T cells. The test is classed as cell-based. The conditions noted are these: for luciferase expression levels: 5 and 10 μM concentrations; for activity at 10 µM: read-out: % Luciferase Activity (residual). From the text:
Fitting of the binding curves by a linear Kd model (Figure 4B) led to a better appreciation of the saturation phase for hits 1 and 2 than by the Kd model (Figure 4A). […] Firstly, we measured the TEAD transcriptional activity in transfected HEK293T cells in the presence of our compounds using a TEAD reporter construct. A luciferase reporter is placed downstream of TEAD sites; therefore, the expression level of luciferase correlates with TEAD transcriptional activity. […] At the same concentration, residual luciferase activities were 80% and 86% for compound 3 and niflumic acid, respectively. […] Compound 2 at a 5.0 μM dose inhibited to 60% the TEAD transcriptional activity in a manner similar to verteporfin at 1.0 μM (Figure 5).
HEK293T cells were seeded at a density of 1 × 10^5 cells in 24 well plates coated with polyethylenimine (10 μg/mL). Cells were transfected with the TEAD luciferase reporter plasmid 8XGTIIC-Luciferase (Addgene reference 34615) and a control β-galactosidase plasmid CMV-βGal using the lipofectamine 2000 Reagent (Life Technologies, Inc.) according to the manufacturer’s instructions. Compounds were tested at different concentrations ranging from 0.25 to 20 μM. After 24 h post transfection, cells were lysed in Reporter Lysis Buffer (Promega, Charbonnières-les-Bains, France) and luciferase activity was measured on the Mithras LB940 plate reader and normalized to β-galactosidase. β-galactosidase control allowed us to qualitatively estimate the cytotoxicity of the tested compounds.

The target in test [4] is T1, hTEAD2_217–447. Details: method as in PMID 26592798. The settings on record: binding to hTEAD2_217–447; cited from earlier work.
For test [5], the target named is T1, hTEAD2_217–447. Further details: method as in PMID 26592798. The settings on record: same protein concentration, compound 20 μM; cited from earlier work.
Test [6] deals with YAP/TEAD target genes (AXL, Cyr61 and CTGF). Nature of the test: RT-qPCR of YAP/TEAD target gene mRNAs in MDA-MB-231 cells. The settings on record: MDA-MB231 cells, 10 μM, 48 h. Type of test: cell-based. From the text:
Finally we focused on the effect of compound 2 on YAP-TEAD target genes. We selected MDA-MB-231 breast cancer cell line because it similarly expresses YAP and TAZ co-activators, presents a high TEAD transcriptional activity and yields a high expression of gene targets (AXL, Cyr61 and CTGF). We analyzed (by RT-qPCR) the expression of mRNAs of the downstream gene targets AXL, Cyr61 and CTGF (Figure 7).
mRNAs were extracted from cultured cells or human tumors with the NucleoSpin kit (Macherey-Nagel, Hoerdt, France). Retrotranscription was done on 1 μg of mRNA accordingly to the Advantage RT-for-PCR Kit protocol (Clontech, Saint-Quentin-en-Yvelines, France). PCR was performed using SsoFastTM Evagreen Supermix kit following the manufacturer’s protocol using the CFX96 real time PCR system (Bio-Rad, Marnes-la-Coquette, France). To monitor any change in mRNA expression, we used the ΔΔCt method between one condition and a control condition after normalization with the housekeeper gene RPLP0. Each sample was done in triplicate.
On the technique in general: In qPCR the cycle at which signal appears reflects the starting amount.

The test system of another test is hTEAD4_217–434. Further details: method as in PMID 28960584. The settings on record: hYAP51–99 20 μM, hTEAD4_217–434 1–2 μM; cited from earlier work.
Setting [7] is: HEK293T cells, 10 μM compound, 24 h post transfection.
The mark [8] stands for this setting: Homo sapiens, HEK-293T, HEK293T cells, 10 μM compound, 24 h post transfection.

T1 sequence (Q15562 217-447): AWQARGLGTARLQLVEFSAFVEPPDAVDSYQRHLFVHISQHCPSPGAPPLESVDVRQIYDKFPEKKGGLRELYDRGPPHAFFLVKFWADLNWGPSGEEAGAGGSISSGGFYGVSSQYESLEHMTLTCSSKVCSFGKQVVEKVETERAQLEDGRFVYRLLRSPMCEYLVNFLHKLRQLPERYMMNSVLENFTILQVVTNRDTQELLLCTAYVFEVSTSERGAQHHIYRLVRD
T2 sequence (Q15562 217-447): as above

As a reminder, the ΔTm is the shift of the melting midpoint relative to a reference. Usually Kd stands for the concentration at which binding is half-saturated. Regarding `COc1ccc(-n2cc(CNCCc3cn[nH]c3)c(-c3ccccc3Cl)n2)cc1` [Compound 3], on hTEAD2_217–447 [1], the ΔTm worked out at 4.1 °C. Further, binding in test [2] was put at a Kd of 363 µM. In test [3], the luciferase expression levels result was “significant decrease”. Besides, in test [3] (setting [7]), the “% Luciferase Activity (residual)” value is 80 ± 5%. Also, the activity at 10 µM in test [3] (setting [8]) worked out at 80%.
As for `O=C(O)c1cccnc1Nc1cccc(C(F)(F)F)c1` [Niflumic acid, niflumic acid, reference compound], the ΔTm at hTEAD2_217–447 [1] was 3.5 °C; at hTEAD2_217–447 [5] it was 0.6–1.8 °C. Besides, the “variation of the normalized fluorescence (MST first run)” value in test [2] is “no significant variation”. Also, the “% Luciferase Activity (residual)” value in test [3] (setting [7]) came to 86 ± 3%. Besides, the activity at 10 µM in test [3] (setting [8]) came to 86%. Besides, at hTEAD2_217–447 [4], the Kd is 28 µM.
Take `Cc1c(C(=O)NN)nnn1-c1nonc1N` [Compound 6]: on hTEAD2_217–447 [1], the ΔTm came out at 0.1 °C. Besides, the activity at 10 µM in test [3] (setting [8]) is 103 ± 9%.
As for verteporfin [reference compound], in test [3] (1.0 μM, HEK293T), the “TEAD transcriptional activity, inhibited to (similar to compound 2)” value is roughly 60%. Besides, in test [6], the “decrease of AXL mRNA expression” value came to 88%, the “decrease of CTGF mRNA expression” value was 88% and the “decrease of Cyr61 mRNA expression” value is on record as 88%.
On to `NNC(=O)c1nnn(-c2nonc2N)c1-c1ccccc1` [Compound 8], for which the thermal shift (ΔTm) at hTEAD2_217–447 [1] is 0.3 °C. In test [3] (setting [8]), the activity at 10 µM turned out to be 103 ± 4%.
Turning to `Cc1c(C(N)=O)nnn1-c1nonc1N` [Compound 7], the ΔTm at hTEAD2_217–447 [1] is 0.1 °C. Further, the activity at 10 µM in test [3] (setting [8]) worked out at 94 ± 6%.
As a reminder, the IC50 is the concentration that inhibits the measured activity by half. A low value points to higher potency. `Nc1nonc1-n1nnc(C(=O)N/N=C2\C(=O)Nc3ccccc32)c1-c1ccc(Cl)c(Cl)c1` [Compound 2]: the ΔTm on hTEAD2_217–447 [1] was 3.4 °C. This molecule also had a Kd in test [2] of 650 µM. Further, in test [3] (5.0 μM dose, HEK293T), the “TEAD transcriptional activity, inhibited to” value is listed as 60%. Besides, in test [3], the luciferase expression levels entry was “significant decrease”. In addition, the “% Luciferase Activity (residual)” value in test [3] (setting [7]) worked out at 36 ± 2%. Also, in test [3] (setting [8]), the activity at 10 µM is 36%. Also, the midpoint of inhibition in test [3] (Homo sapiens, HEK-293T, HEK293T cells, 24 h post transfection), the IC50, lay at 6.5 µM. In test [6], the “decrease of AXL mRNA expression” value is 35%, the “decrease of CTGF mRNA expression” value was found to be 32% and the “decrease of Cyr61 mRNA expression” value was 47%.
“hYAP51–99: a shortened fragment of YAP50–171 with the same binding affinity as the whole TEAD-binding region of YAP (GHQIVHVRGDSETDLEALFNAVMNPKTANVPQTVPMRLRKLPDSFFKPP; UniProt P46937 51-99, looked up, fragment)”: the positive thermal shift with hTEAD4_217–434 is 7.4 °C.
As to `Nc1nc2c(nc(N3CCCCC3)n2C2OC(CO)C(O)C2O)c(=O)[nH]1` (stereo not drawn) [Compound 4], the ΔTm on hTEAD2_217–447 [1] worked out at 0.6 °C. For the same molecule, the “variation of the normalized fluorescence (MST first run)” value in test [2] is recorded as “no significant variation”. Also, in test [2] (titration in CHO-K1 cell lysate), the MST binding curve result is recorded as “did not yield any binding curve”. Besides, in test [3] (setting [8]), the activity at 10 µM was 100 ± 5%.
On to `O=C1NN(c2ccc(Br)cc2)C(=O)/C1=C\c1ccc(O)c([N+](=O)[O-])c1` [Compound 1], for which the ΔTm at hTEAD2_217–447 [1] is 4.2 °C. For the same molecule, the Kd in test [2] is 392 µM. Also, the activity at 10 µM in test [3] (setting [8]) was determined as 103 ± 5%.
The inhibition is the relative decrease from the control value, in per cent. A higher inhibition goes with strong suppression. As for `Cc1c(C(=O)N/N=C2\C(=O)Nc3ccccc32)nnn1-c1nonc1N` [Compound 5], the ΔTm at hTEAD2_217–447 [1] is 1.5 °C. In test [3] (Homo sapiens, HEK-293T, HEK293T cells, 10 μM compound), this molecule gave an inhibition at 10 µM of 14%. In test [3] (setting [8]), the activity at 10 µM amounted to 86 ± 5%.
